One may read the IC50 as the concentration at which inhibition is half-maximal.

Counter-ions that a name gives are not always drawn.

Data on seven compounds can be found in US20040024024A1, “Aromatic sulfone hydroxamates and their use as protease inhibitors” (priority 2001, published 2004).

What all share (experiment): In vitro MMP inhibition, IC50 determination (fluorogenic substrate I)
Holding throughout (type): biochemical

One experiment concerns the target T1, Human recombinant MMP-1 (Homo sapiens, UniProt P03956).
T1 construct: made in house; host or cells: MMP-1-transfected HT-1080 cells (spent media)
T1 sequence (P03956 100-469): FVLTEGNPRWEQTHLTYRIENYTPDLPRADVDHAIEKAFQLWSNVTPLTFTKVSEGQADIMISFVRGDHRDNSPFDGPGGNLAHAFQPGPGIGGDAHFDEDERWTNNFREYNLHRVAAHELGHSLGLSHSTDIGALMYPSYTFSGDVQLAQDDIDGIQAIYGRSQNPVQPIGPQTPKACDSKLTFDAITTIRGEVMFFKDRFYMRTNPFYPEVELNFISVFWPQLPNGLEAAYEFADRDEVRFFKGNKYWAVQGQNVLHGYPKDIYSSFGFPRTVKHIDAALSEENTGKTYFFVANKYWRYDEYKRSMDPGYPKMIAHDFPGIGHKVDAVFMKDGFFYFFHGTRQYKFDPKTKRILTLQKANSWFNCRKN
The method, then:
(§1) Several hydroxamates and salts thereof were analyzed in in vitro assays to determine their ability to inhibit the MMP cleavage of peptide substrates. Inhibition (Ki) and IC50 constants were calculated from the assayed hydroxamate-MMP interactions.
(§2) Human recombinant MMP-1, MMP-2, MMP-9, MMP-13, and MMP-14 were used in this assay. All enzymes were prepared in Assignee's laboratories following usual laboratory procedures. Protocols for the preparation and use of these enzymes are available in the scientific literature. See, e.g., Enzyme Nomenclature (Academic Press, San Diego, Calif., 1992) (and the citations therein). See also, Frije et al., J. Biol. Chem., 26(24), 16766-73 (1994).
The MMP-1 proenzyme was purified from the spent media of MMP-1-transfected HT-1080 cells provided by Dr. Harold Welgus of Washington University (St. Louis, Mo.). The protein was purified on a zinc chelating column.
(§3) All MMPs were activated using 4-aminophenylmercuric acetate (“APMA”, Sigma Chemical, St. Louis, Mo.) or trypsin. MMP-9 also was activated using human recombinant MMP-3 (purified in Assignee's laboratory following standard cloning and purification techniques).
(§4) Two fluorogenic, methoxycoumarin-containing polypeptide substrates were used in the MMP inhibition assays:
(§5) MCA-ProLeuGlyLeuDpaAlaArgNH2 (I)
(§6) Here, “Dpa” is 3-(2,4-dinitrophenyl)-L-2,3-diaminopropionyl group, and “MCA” is 7-methoxycoumarin-4-yl acetyl. Substrate (I) was purchased from Baychem (Redwood City, Calif.), and substrate II was prepared Assignee's laboratory. Substrate I was used in the IC50 determination assays, while substrate II was used in the Ki determination assays. In the absence of MMP inhibitory activity, either substrate is cleaved at the Gly-Leu peptide bond. This cleavage separates the highly fluorogenic peptide from the 2,4-dinitrophenyl quencher, thus resulting in increase of fluorescent intensity.
(§7) The stock solutions of the assayed hydroxamates (or salts thereof) were prepared in 1% dimethyl sulfoxide (DMSO). These stock solutions were diluted in Buffer A (100 mM Tris-HCl, 100 mM NaCl, 10 mM CaCl2, 0.05% polyoxyethylene 23 lauryl ether, pH 7.5) to obtain solutions with different hydroxamate concentrations, i.e., assay solutions with different concentrations of the assayed MMP inhibitory compound. The experiment controls contained the same amount of Buffer A/DMSO as the assayed sample, but contained no hydroxamate (or salt thereof).
(§8) The assays from which the IC50 determinations were made were performed as follows. The MMPs were activated with either trypsin or APMA (4-aminophenylmercuric acetate, Sigma Chemical, St. Louis, Mo.). The assayed hydroxamate samples were, incubated in Microfluorrm White Plates (Dynatech, Chantilly, VA) and analyzed on a Perkin Elmer L550 plate reader (Norwalk, Conn.). The excitation wavelength was 328 nm, and the emission wavelength—415 nm. All samples (assayed hydroxamates and controls) were incubated in separate plates at room temperature in the presence of 4 μM of MMP substrate (I). As stated in the previous paragraph, samples containing varying concentrations of the same assayed hydroxamate were prepared. Inhibition was measured as a reduction in fluorescent intensity as a function of MMP inhibitor concentration.

Another experiment addresses T2, Human recombinant MMP-2 (Homo sapiens, UniProt P08253).
T2 construct: made in house; host or cells: MMP-2-transfected p2AHT2 cells
T2 sequence (P08253 110-660): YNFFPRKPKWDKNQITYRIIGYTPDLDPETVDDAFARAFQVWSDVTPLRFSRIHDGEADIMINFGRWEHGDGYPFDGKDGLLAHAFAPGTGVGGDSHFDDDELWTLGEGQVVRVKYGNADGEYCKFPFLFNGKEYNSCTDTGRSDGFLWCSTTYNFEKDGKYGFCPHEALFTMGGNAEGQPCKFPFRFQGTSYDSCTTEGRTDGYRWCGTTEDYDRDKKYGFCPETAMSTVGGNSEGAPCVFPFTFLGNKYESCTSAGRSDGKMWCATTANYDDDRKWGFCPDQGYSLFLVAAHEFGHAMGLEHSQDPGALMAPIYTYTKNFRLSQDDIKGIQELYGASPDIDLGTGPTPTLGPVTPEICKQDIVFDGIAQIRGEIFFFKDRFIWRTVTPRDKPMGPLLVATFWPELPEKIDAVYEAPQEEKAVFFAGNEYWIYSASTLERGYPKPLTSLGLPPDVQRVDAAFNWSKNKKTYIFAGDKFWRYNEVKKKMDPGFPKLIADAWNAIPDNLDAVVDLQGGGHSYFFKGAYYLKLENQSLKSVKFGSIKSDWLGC
The gist of the method:
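IC50 was derived from the concentration-dependent fall in fluorescence (ex 328, em 415 nm) on Gly-Leu cleavage of 4 μM MCA/Dpa-quenched substrate I. Assays ran at room temperature in pH 7.5 Tris/NaCl/CaCl2/Brij buffer with MMP-2 activated by trypsin or APMA; inhibitors were diluted from 1% DMSO stocks.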

Another experiment addresses T3, Human recombinant MMP-9 (Homo sapiens, UniProt P14780).
T3 construct: made in house; host or cells: MMP-9-transfected HT1080 cells (spent media)
The method, then: as §1, §2
The MMP-9 proenzyme was purified by gelatin Sepharose chromatography from spent media of MMP-9-transfected HT1080 cells provided by Dr. Howard Welgus of Washington University (St. Louis, Mo.).
as §3, §4, §5, §6, §7, §8

The target of a further experiment is T4, Human recombinant MMP-13 (Homo sapiens, UniProt P45452).
T4 construct: made in house; host or cells: baculovirus / insect cells
The gist of the method: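 Fluorescence at 415 nm (excitation 328 nm) reports Gly-Leu cleavage of 4 μM quenched methoxycoumarin peptide substrate I. Human recombinant MMP-13, activated by trypsin or APMA, was incubated at room temperature with varied inhibitor concentrations in pH 7.5 Tris/NaCl/CaCl2 buffer; IC50 derived from reduced fluorescence.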

In the next experiment the target is T5, Human recombinant MMP-14 (Homo sapiens, UniProt P50281).
T5 construct: The catalytic domain enzyme was expressed in E. coli inclusion bodies, solubilized in urea; made in house
The method, then: as §1, §2
The MMP-14 full length cDNA was provided by Dr. Gregory Goldberg of Washington University (St. Louis, Mo.). The catalytic domain enzyme was expressed in E. coli inclusion bodies, solubilized in urea, purified on a preparative […] reverse phase HPLC column, and then refolded in the presence of zinc acetate and purified for use.
as §3, §4, §5, §6, §7, §8

[1] abbreviates: substrate (I) 4 μM, room temperature, values not in parenthesis.

T3 sequence (P14780 107-707 limits assumed): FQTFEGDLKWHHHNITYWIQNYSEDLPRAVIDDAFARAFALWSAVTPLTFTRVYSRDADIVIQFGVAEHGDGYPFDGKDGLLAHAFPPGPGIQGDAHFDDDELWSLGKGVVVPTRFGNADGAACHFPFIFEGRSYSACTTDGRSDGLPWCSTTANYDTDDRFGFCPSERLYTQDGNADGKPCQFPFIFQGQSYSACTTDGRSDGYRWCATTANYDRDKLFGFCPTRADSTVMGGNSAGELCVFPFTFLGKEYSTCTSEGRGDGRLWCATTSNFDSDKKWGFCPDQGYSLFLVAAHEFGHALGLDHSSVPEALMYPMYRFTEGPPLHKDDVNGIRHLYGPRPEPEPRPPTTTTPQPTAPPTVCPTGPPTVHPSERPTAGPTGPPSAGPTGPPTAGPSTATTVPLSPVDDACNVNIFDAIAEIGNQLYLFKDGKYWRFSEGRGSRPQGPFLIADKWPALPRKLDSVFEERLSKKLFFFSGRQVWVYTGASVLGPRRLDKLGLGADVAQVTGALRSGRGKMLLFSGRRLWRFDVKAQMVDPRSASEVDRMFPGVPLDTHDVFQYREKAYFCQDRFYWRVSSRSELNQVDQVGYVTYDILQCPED

Turning to `O=C(NO)C1(S(=O)(=O)c2ccc(OCCCSc3nc4ccccc4o3)cc2)CCOCC1` [Example 33, 4-[[4-[3-(2-benzoxazolylthio)propoxy]phenyl]sulfonyl]tetrahydro-N-N-hydroxy-2H-pyran-4-carboxamide], the IC50 is more than 10 µM on Human recombinant MMP-1 (setting [1]); 16 nM on Human recombinant MMP-2 (setting [1]); 7.9 nM on Human recombinant MMP-9 (setting [1]); 1 nM on Human recombinant MMP-13 (setting [1]); 4.94 µM on Human recombinant MMP-14 (setting [1]).

In the case of `O=C(OCCCCOc1ccc(S(=O)(=O)C2(C(=O)NO)CCOCC2)cc1)N1CCc2ccccc2C1` [Example 34], the IC50 at Human recombinant MMP-1 (setting [1]) was 0.429 µM; on Human recombinant MMP-2 (setting [1]), 36.6 nM; on Human recombinant MMP-9 (setting [1]) it was more than 10000 nM; at Human recombinant MMP-13 (setting [1]), 3 nM; at Human recombinant MMP-14 (setting [1]) it was more than 10 µM.

Consider `O=C1c2ccccc2C(=O)N1CCCCc1ccc(S(=O)(=O)C2(C(=O)NO)CCOCC2)cc1` [Example 35], for which the IC50 at Human recombinant MMP-1 (setting [1]) was more than 10 µM; on Human recombinant MMP-2 (setting [1]), 600 nM; on Human recombinant MMP-9 (setting [1]), more than 10000 nM; at Human recombinant MMP-13 (setting [1]) it was 3 nM; at Human recombinant MMP-14 (setting [1]), more than 10 µM.

For the compound `O=C(NO)C1(S(=O)(=O)c2ccc(OCCCc3nc4ccccc4o3)cc2)CCOCC1` [Example 37, 4-[[4-[3-(2-benzoxazolyl)propoxy]phenyl]sulfonyl]tetrahydro-N-hydroxy-2H-pyran-4-carboxamide], the IC50 at Human recombinant MMP-1 (setting [1]) was 8.71 µM; on Human recombinant MMP-2 (setting [1]), 30.3 nM; at Human recombinant MMP-9 (setting [1]) it was 449 nM; at Human recombinant MMP-13 (setting [1]) it was 1.4 nM; at Human recombinant MMP-14 (setting [1]), more than 10 µM.

`COCCN1CCC(C(=O)NO)(S(=O)(=O)c2ccc(OCCCSc3nc4ccccc4o3)cc2)CC1` [Example 43, 4-([4-[3-(1,3-benzoxazol-2-ylthio)propoxy]phenyl]sulfonyl)-N-hydroxy-1-(2-methoxyethyl)piperidine-4-carboxamide Hydrochloride]: the 50% inhibitory concentration (IC50) at Human recombinant MMP-1 (setting [1]) was more than 10 µM; at Human recombinant MMP-2 (setting [1]), 4.8 nM; on Human recombinant MMP-9 (setting [1]), 1 nM; on Human recombinant MMP-13 (setting [1]), 1 nM; at Human recombinant MMP-14 (setting [1]), 2.08 µM.

As for `COCCN1CCC(C(=O)NO)(S(=O)(=O)c2ccc(OCCCc3cccc(-c4ccccc4)c3)cc2)CC1` [Example 44], the IC50 at Human recombinant MMP-1 (setting [1]) is more than 10 µM; at Human recombinant MMP-2 (setting [1]), 133 nM; at Human recombinant MMP-9 (setting [1]) it was 154 nM; on Human recombinant MMP-13 (setting [1]), 1.4 nM; at Human recombinant MMP-14 (setting [1]), 4.98 µM.

In the case of `O=C(NO)C1(S(=O)(=O)c2ccc(OCCc3cccc(-c4ccccc4)c3)cc2)CCOCC1` [Example 99], the IC50 was more than 10 µM on Human recombinant MMP-1 (value outside parenthesis); 246 nM at Human recombinant MMP-2 (value outside parenthesis); 3440 nM on Human recombinant MMP-9 (value outside parenthesis); 0.4 nM at Human recombinant MMP-13 (value outside parenthesis); more than 10 µM at Human recombinant MMP-14 (value outside parenthesis).
